# Experiments:
# [1] = system: IMR-90 human lung fibroblasts; test: MTT cytotoxicity assay, IMR-90 fibroblasts; format: cell-based; conditions: exposure time 96 h, mean ± SD
# Procedure: (§1) CH1/PA-1 (ovarian teratocarcinoma), SW480 (colon carcinoma) and A549 (non-small cell lung cancer) cells were maintained as described in the reference. IMR-90 human fetal lung fibroblasts (from the European Collection of Authenticated Cell Cultures, Porton Down, Salisbury, UK) were cultured in Stable Cell^TM DMEM/F12 supplemented with 0.01 mg/mL human recombinant insulin (both purchased from Sigma-Aldrich) and 10% fetal bovine serum (FBS, BioWest, Nuaillé, France). Human colon carcinoma cell lines HCT116 and HT29 (both kindly provided by the Institute of Cancer Research, Department of Medicine I, Medical University of Vienna, Austria) were cultured in McCoy’s 5a medium supplemented with 4 mM L-glutamine (both purchased from Sigma-Aldrich) and 10% FBS. MCF-7 human breast adenocarcinoma cells (kindly provided by M. Ogris, Department of Pharmaceutical Sciences, University of Vienna, Austria) were maintained in DMEM (high glucose) supplemented with 4 mM L-glutamine, 0.1 mg/mL human insulin (all purchased from Sigma-Aldrich) and 10% FBS. All cell lines were grown as monolayers in 75 cm^2 culture flasks (CytoOne, Starlab, Hamburg, Germany) at 37 °C in a humidified atmosphere containing 5% CO2.
# (§2) Exponentially growing cells were plated into 96-well microculture plates (CytoOne, tissue culture treated, Starlab, Hamburg, Germany) in densities of 1 × 10^3 CH1/PA-1, 2 × 10^3 SW480, 3 × 10^3 A549 and 7 × 10^3 IMR-90 cells per well (each in 100 µL). After a 24 h preincubation, drugs were added in serial dilution to give a final volume of 200 µL/well and exposed for 96 h. At the end of the exposure, the drug solutions were replaced by 100 µL RPMI 1640/MTT mixture (7:1 ratio). MTT (3-(4,5-dimethylthiazol-2-yl)-2,5-diphenyl-2H-tetrazolium bromide), (Acros Organics, Geel, Belgium) solution was prepared in phosphate-buffered saline (5 mg/mL) and mixed with RPMI1640 medium supplemented with 4 mM L-glutamine (both from Sigma-Aldrich) and 10% FBS. After 4 h incubation, the formazan crystals were solubilized in 150 µL of DMSO per well. Absorbance was measured at 550 nm (and at 690 nm as a reference) with a microplate reader (ELx808, BioTek, Winoosky, VT, USA) and Gen5^TM 3.08 software (BioTek). The 50% inhibitory concentrations (IC50) relative to untreated controls were interpolated from concentration-effect curves. At least three biologically and technically independent experiments were performed.
# [2] = system: HT29 cells; test: Annexin V-FITC/PI apoptosis assay, HT29; conditions: HT29, 24 h; for ∑apoptotic cells [%]: sum of early and late
# [3] = system: A549 (non-small cell lung carcinoma) cells; test: MTT cytotoxicity assay, A549 monolayer; format: cell-based, human; conditions: exposure time 96 h, mean ± SD
# Procedure: as §1, §2
# [4] = system: SW480 (colon carcinoma) cells; test: MTT cytotoxicity assay, SW480 monolayer; format: cell-based, human; conditions: exposure time 96 h, mean ± SD
# Procedure: as §1, §2
# [5] = system: CH1/PA-1 (ovarian teratocarcinoma) cells; test: MTT cytotoxicity assay, CH1/PA-1 monolayer; format: cell-based, human; conditions: exposure time 96 h, mean ± SD
# Procedure: as §1, §2
# [6] = system: HT29 cells; test: Resazurin assay, HT29 2D monolayer; format: cell-based, human; conditions: 96 h
# Procedure: as §1
# (§3) For the resazurin assay in monolayer cultures, cells were seeded into 96-well microculture plates (CytoOne, tissue culture treated, Starlab, Hamburg, Germany) in densities of 2 × 10^3 HCT116, 2 × 10^3 HT29 and 4 × 10^3 MCF-7 cells per well (each in 100 µL). For tests in 3D cultures, spheroids were grown as described above. After 24 h (for monolayers) or 4 days (for spheroids) the test compounds in the appropriate medium were added in serial dilution to the plates to obtain a total volume of 200 µL/well. Wells without cells, containing medium and resazurin (Alfa Aesar, Thermo Fisher, Kandel, Germany) solution were used as blanks. After 96 h exposure 20 µL of the resazurin solution (440 µM) were added to each well, followed by a 4 h (2D) or 12 h (3D) incubation period. Resorufin fluorescence was quantified at 530 nm (and a reference wavelength of 620 nm) by using a microplate reader (Synergy HT, BioTek) with Gen5^TM 3.10 software (BioTek).
# [7] = Solubility in PBS (1% DMSO); format: physicochemical
# Procedure: (§4) Stock solutions in DMSO of compounds 1–10 were utilized to determine the solubility in PBS by adding 1 vol% of the stock solution to a suitable amount of PBS. […] UV/Vis data were recorded on a Perkin Elmer Lambda 650 UV/Vis Spectrophotometer with a Peltier element for temperature control.
# [8] = system: HCT116, HT29 and MCF-7 cell lines; test: ROS detection (DCFH-DA assay); format: cell-based, human; conditions: 2, 20, 100 and 200 µM, 2 h
# Procedure: Reactive oxygen species (ROS) generation was measured by means of the DCFH-DA assay. […] On the following day, cells were washed with 200 µL Hanks’ balanced salt solution (HBSS, Sigma-Aldrich, containing 1% FBS) and stained with 100 µL of 25 µM DCFH-DA (2′,7′-dichlorofluorescein diacetate, Sigma-Aldrich) in HBSS (containing 1% FBS) for 45 min at 37 °C in the dark. After the incubation period, cells were washed with 200 µL HBSS (1% FBS) and loaded with compounds at concentrations of 2 µM, 20 µM, 100 µM and 200 µM in 200 µL phenol-red-free MEM (1% FBS) in triplicates. As positive controls, cells were treated with 200 µM and 400 µM tert-butylhydroperoxide (Sigma-Aldrich). Wells containing only phenol-red-free medium with 1% FBS were used as blanks, and non-drug treated, cell containing wells as reference values. Fluorescence (excitation: 485/20 nm, emission: 516/20 nm) was recorded in 10 min intervals with the Synergy HT reader (BioTek) over 2 h.
# [9] = system: HCT116 cells; test: Annexin V-FITC/PI apoptosis assay, HCT116; format: cell-based, human; conditions: HCT116, 24 h; for ∑apoptotic cells [%]: sum of early and late
# [10] = system: HCT116 cells; test: Resazurin assay, HCT116 2D monolayer; format: cell-based, human; conditions: 96 h
# Procedure: as §1, §3
# [11] = Aqueous stability by UV/Vis in PBS; format: physicochemical; conditions: 24 h, 293 K, 1 vol% DMSO
# Procedure: as §4
# In order to examine the stability of the compounds in aqueous solution, UV/Vis measurements were performed every hour during 24 h at 293 K. Solutions of compounds 1–10 were prepared in PBS (10%) from a previously prepared DMSO stock solution of each compound. The total concentration of DMSO was 1 vol% for the final complex solutions of 1–10.
smiles,measurement,setting,value
"F[P-](F)(F)(F)(F)F.O=c1c([O-])c(-c2ccc(Cl)cc2)oc2ccccc12.[W+4].c1cc[cH-]c1.c1cc[cH-]c1 [Compound 3, Bis(η^5-cyclopentadienyl)[2-(4-chlorophenyl)-3-(oxo-κO)-4(H)-chromen-4-oato-κO]tungsten(IV) hexafluorophosphate]",IC50,[1],38.2 ± 0.4 µM
same,early apoptotic cells [%] AV+ / PI-,[2]; 2 µM,4.6 ± 4.1%
same,late apoptotic cells [%] AV+ / PI+,[2]; 2 µM,7.2 ± 3.8%
same,necrotic cells [%] AV- / PI+,[2]; 2 µM,5.1 ± 4.2%
same,viable cells [%] AV- / PI-,[2]; 2 µM,83.0 ± 3.8%
same,∑apoptotic cells [%],[2]; 2 µM,11.8%
same,early apoptotic cells [%] AV+ / PI-,[2]; 20 µM,8.6 ± 2.5%
same,late apoptotic cells [%] AV+ / PI+,[2]; 20 µM,11.1 ± 1.0%
same,necrotic cells [%] AV- / PI+,[2]; 20 µM,5.4 ± 1.2%
same,viable cells [%] AV- / PI-,[2]; 20 µM,74.9 ± 3.3%
same,∑apoptotic cells [%],[2]; 20 µM,19.7%
same,early apoptotic cells [%] AV+ / PI-,[2]; 200 µM,0.8 ± 0.5%
same,late apoptotic cells [%] AV+ / PI+,[2]; 200 µM,82.2 ± 4.1%
same,necrotic cells [%] AV- / PI+,[2]; 200 µM,14.9 ± 2.8%
same,viable cells [%] AV- / PI-,[2]; 200 µM,2.2 ± 1.3%
same,IC50,[3],19 ± 3 µM
same,IC50,[4],5.4 ± 1.1 µM
same,IC50,[5],2.7 ± 0.4 µM
same,IC50,[6],17 ± 4 µM
same,Solubility in PBS (1% DMSO),[7],30 µg/mL
same,intracellular ROS levels,[8],Pronounced elevation of ROS levels
same,early apoptotic cells [%] AV+ / PI-,[9]; 2 µM,4.6 ± 1.7%
same,late apoptotic cells [%] AV+ / PI+,[9]; 2 µM,13.5 ± 0.6%
same,necrotic cells [%] AV- / PI+,[9]; 2 µM,4.3 ± 0.7%
same,viable cells [%] AV- / PI-,[9]; 2 µM,77.7 ± 1.6%
same,∑apoptotic cells [%],[9]; 2 µM,18.1%
same,early apoptotic cells [%] AV+ / PI-,[9]; 20 µM,5.0 ± 0.9%
same,late apoptotic cells [%] AV+ / PI+,[9]; 20 µM,12.1 ± 2.9%
same,necrotic cells [%] AV- / PI+,[9]; 20 µM,2.5 ± 0.6%
same,viable cells [%] AV- / PI-,[9]; 20 µM,80.4 ± 2.6%
same,∑apoptotic cells [%],[9]; 20 µM,17.1%
same,early apoptotic cells [%] AV+ / PI-,[9]; 100 µM,3.3 ± 1.1%
same,late apoptotic cells [%] AV+ / PI+,[9]; 100 µM,75.5 ± 5.6%
same,necrotic cells [%] AV- / PI+,[9]; 100 µM,12.8 ± 0.2%
same,viable cells [%] AV- / PI-,[9]; 100 µM,8.6 ± 4.3%
same,∑apoptotic cells [%],[9]; 100 µM,78.8%
same,early apoptotic cells [%] AV+ / PI-,[9]; 200 µM,0.0 ± 0.0%
same,late apoptotic cells [%] AV+ / PI+,[9]; 200 µM,94.1 ± 4.8%
same,necrotic cells [%] AV- / PI+,[9]; 200 µM,5.5 ± 4.9%
same,viable cells [%] AV- / PI-,[9]; 200 µM,0.4 ± 0.3%
same,IC50,[10],9.2 ± 1.4 µM
same,precipitation in PBS,[11],slowly precipitate out of the solution over time
"F[P-](F)(F)(F)(F)F.[O-]c1c(-c2ccc(Cl)cc2)oc2ccccc2c1=S.[W+4].c1cc[cH-]c1.c1cc[cH-]c1 [Compound 4, Bis(η^5-cyclopentadienyl)[2-(4-chlorophenyl)-3-(oxo-κO)-4(H)-chromen-4-thionato-κS]tungsten(IV) hexafluorophosphate]",IC50,[1],11 ± 2 µM
same,early apoptotic cells [%] AV+ / PI-,[2]; 2 µM,3.7 ± 3.2%
same,late apoptotic cells [%] AV+ / PI+,[2]; 2 µM,4.8 ± 1.3%
same,necrotic cells [%] AV- / PI+,[2]; 2 µM,5.4 ± 5.0%
same,viable cells [%] AV- / PI-,[2]; 2 µM,86.2 ± 3.1%
same,∑apoptotic cells [%],[2]; 2 µM,8.5%
same,early apoptotic cells [%] AV+ / PI-,[2]; 20 µM,16.8 ± 5.2%
same,late apoptotic cells [%] AV+ / PI+,[2]; 20 µM,19.5 ± 2.0%
same,necrotic cells [%] AV- / PI+,[2]; 20 µM,13.3 ± 5.1%
same,viable cells [%] AV- / PI-,[2]; 20 µM,50.4 ± 4.1%
same,IC50,[3],6.3 ± 0.5 µM
same,IC50,[4],2.4 ± 0.5 µM
same,IC50,[5],1.6 ± 0.5 µM
same,IC50,[6],5.5 ± 1 µM
same,Solubility in PBS (1% DMSO),[7],10 µg/mL
same,intracellular ROS levels,[8],concentration-dependent anti-oxidative properties
same,early apoptotic cells [%] AV+ / PI-,[9]; 2 µM,2.3 ± 0.0%
same,late apoptotic cells [%] AV+ / PI+,[9]; 2 µM,8.0 ± 6.2%
same,necrotic cells [%] AV- / PI+,[9]; 2 µM,2.4 ± 1.5%
same,viable cells [%] AV- / PI-,[9]; 2 µM,87.3 ± 7.8%
same,∑apoptotic cells [%],[9]; 2 µM,10.3%
same,early apoptotic cells [%] AV+ / PI-,[9]; 20 µM,1.9 ± 0.4%
same,late apoptotic cells [%] AV+ / PI+,[9]; 20 µM,31.1 ± 4.7%
same,necrotic cells [%] AV- / PI+,[9]; 20 µM,11.5 ± 1.2%
same,viable cells [%] AV- / PI-,[9]; 20 µM,55.5 ± 4.8%
same,IC50,[10],6 ± 0.9 µM
same,precipitation in PBS,[11],slowly precipitate out of the solution over time
"CCc1occc(=S)c1[O-].F[P-](F)(F)(F)(F)F.[W+4].c1cc[cH-]c1.c1cc[cH-]c1 [Compound 10, Bis(η^5-cyclopentadienyl)[2-ethyl-3-(oxo-κO)-4-(1H)-pyran-4-thionato-κS] tungsten(IV) hexafluorophosphate]",IC50,[1],114 ± 33 µM
same,early apoptotic cells [%] AV+ / PI-,[2]; 200 µM,3.1 ± 2.8%
same,late apoptotic cells [%] AV+ / PI+,[2]; 200 µM,5.1 ± 5.2%
same,necrotic cells [%] AV- / PI+,[2]; 200 µM,2.3 ± 0.9%
same,viable cells [%] AV- / PI-,[2]; 200 µM,89.5 ± 8.5%
same,∑apoptotic cells [%],[2]; 200 µM,8.2%
same,IC50,[3],53 ± 8 µM
same,IC50,[4],13 ± 1 µM
same,IC50,[5],21 ± 1 µM
same,IC50,[6],54 ± 2 µM
same,Solubility in PBS (1% DMSO),[7],320 µg/mL
same,intracellular ROS levels,[8],relevant ROS generation
same,early apoptotic cells [%] AV+ / PI-,[9]; 200 µM,3.8 ± 3.2%
same,late apoptotic cells [%] AV+ / PI+,[9]; 200 µM,4.3 ± 3.6%
same,necrotic cells [%] AV- / PI+,[9]; 200 µM,2.4 ± 0.7%
same,viable cells [%] AV- / PI-,[9]; 200 µM,89.6 ± 7.5%
same,∑apoptotic cells [%],[9]; 200 µM,8.0%
same,IC50,[10],42 ± 3 µM
same,precipitation in PBS,[11],slowly precipitate out of the solution over time

# From article PMC10384408, “Anticancer Tungstenocenes with a Diverse Set of (O,O–), (O,S–) and (O,N–) Chelates—A Detailed Biological Study Using an Improved Evaluation via 3D Spheroid Models” (Pharmaceutics, 2023)
